Measurements published in BindingDB's records for doi:10.3109/14756360903179443 (Institute of Chemical Technology, 2010).
Where a name gives a salt, the structure may show the parent alone.

Columns and labels:
Assay in all cases: Biological Assay
Dihydrofolate reductase [1] = biological target: T1, Dihydrofolate reductase (Rattus norvegicus, UniProt Q920D2)
T1 sequence (Q920D2 whole entry): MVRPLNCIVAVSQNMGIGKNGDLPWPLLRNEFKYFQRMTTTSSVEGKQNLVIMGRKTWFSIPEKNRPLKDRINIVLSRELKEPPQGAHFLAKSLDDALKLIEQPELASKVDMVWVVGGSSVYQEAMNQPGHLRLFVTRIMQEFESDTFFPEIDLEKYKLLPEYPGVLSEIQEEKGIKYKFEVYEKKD
Description: (§1) The synthesized compounds were evaluated for their ability to inhibit DHFR from pc, tg, ma, and rl using a continuous spectrophotometric assay measuring oxidation at […] of NADPH at 37°C under conditions of saturating substrate and cofactor as previously described [Broughton et al., Antimicrob. Agents Chemother., 35:1348-55; Chio et al., Antimicrob. Agents Chemother., 37:1914-23].

[2] = biological target: T2, Bifunctional dihydrofolate reductase-thymidylate synthase (Toxoplasma gondii, UniProt Q07422)
T2 sequence (Q07422 whole entry): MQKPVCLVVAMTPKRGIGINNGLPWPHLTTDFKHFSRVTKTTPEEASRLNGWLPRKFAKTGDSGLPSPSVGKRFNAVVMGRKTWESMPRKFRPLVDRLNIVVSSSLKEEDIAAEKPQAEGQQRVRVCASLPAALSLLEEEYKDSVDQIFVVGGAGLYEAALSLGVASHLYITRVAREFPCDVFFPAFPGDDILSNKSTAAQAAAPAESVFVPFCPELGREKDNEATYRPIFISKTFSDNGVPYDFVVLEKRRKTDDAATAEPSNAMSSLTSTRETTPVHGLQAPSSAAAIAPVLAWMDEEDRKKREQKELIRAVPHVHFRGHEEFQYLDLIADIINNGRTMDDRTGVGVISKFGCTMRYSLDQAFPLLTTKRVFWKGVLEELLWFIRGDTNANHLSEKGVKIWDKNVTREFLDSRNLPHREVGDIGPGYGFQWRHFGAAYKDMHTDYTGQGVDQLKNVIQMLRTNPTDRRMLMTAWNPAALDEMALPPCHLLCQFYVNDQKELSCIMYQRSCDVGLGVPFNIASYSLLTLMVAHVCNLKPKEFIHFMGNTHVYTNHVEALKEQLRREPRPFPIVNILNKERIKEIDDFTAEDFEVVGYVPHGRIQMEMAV
Description: as §1

Dihydrofolate reductase [3] = biological target: T3, Dihydrofolate reductase (Mycobacterium avium, UniProt O30463)
T3 sequence (O30463 whole entry): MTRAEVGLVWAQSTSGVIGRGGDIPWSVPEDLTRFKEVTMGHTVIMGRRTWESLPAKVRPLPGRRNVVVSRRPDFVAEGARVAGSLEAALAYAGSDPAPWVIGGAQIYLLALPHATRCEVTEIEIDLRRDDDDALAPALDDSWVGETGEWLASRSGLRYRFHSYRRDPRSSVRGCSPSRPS
Description: as §1

Dihydrofolate reductase [4] = biological target: T4, Dihydrofolate reductase (Pneumocystis carinii, UniProt P16184)
T4 sequence (P16184 whole entry): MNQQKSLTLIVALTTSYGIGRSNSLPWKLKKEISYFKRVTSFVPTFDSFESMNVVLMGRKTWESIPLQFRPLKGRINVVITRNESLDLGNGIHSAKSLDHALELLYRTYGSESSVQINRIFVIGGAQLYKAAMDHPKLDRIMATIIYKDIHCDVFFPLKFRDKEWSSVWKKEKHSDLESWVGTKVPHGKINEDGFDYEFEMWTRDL
Description: as §1

Compound `CC1(C)N=C(N)N=C(N)N1c1ccc(OCc2ccccc2)cc1` has an IC50 (Dihydrofolate reductase [1]) of 0.12 µM, an IC50 [2] of 0.032 µM and an IC50 (Dihydrofolate reductase [3]) of 14.4 µM. It also gave an IC50 (Dihydrofolate reductase [4]) of 5.4 µM.

`CC1(C)N=C(N)N=C(N)N1c1ccc(OCc2ccc(Cl)cc2Cl)cc1` [1-(4-(2,4-Dichlorobenzyloxy)phenyl)-6,6-dimethyl-1-,6-dihydro-1,3,5-triazine-2,4-diamine hydrochloride (B2-04)] was tested, and the IC50 (Dihydrofolate reductase [1]) was 0.018 µM, the IC50 [2] was 0.029 µM and the IC50 (Dihydrofolate reductase [3]) was 11.2 µM. The IC50 (Dihydrofolate reductase [4]) was 1.08 µM.

Compound `CC1(C)N=C(N)N=C(N)N1c1ccc(OCc2ccccc2Cl)cc1` [1-(4-(2-Chlorobenzyloxy)phenyl)-6,6-dimethyl-1,6-dihydro-1,3,5-triazine-2,4-diamine hydrochloride (B2-03)] has an IC50 (Dihydrofolate reductase [1]) of 0.073 µM, an IC50 [2] of 0.04 µM and an IC50 (Dihydrofolate reductase [3]) of 10.3 µM. For the same compound, the IC50 (Dihydrofolate reductase [4]) was 2.53 µM.

Work on `CC1(C)N=C(N)N=C(N)N1c1ccc(OCc2cccc(Cl)c2)cc1` [1-(4-(3-Chlorobenzyloxy)phenyl)-6,6-dimethyl-1,6-dihydro-1,3,5-triazine-2,4-diamine hydrochloride (B2-02)] yielded an IC50 (Dihydrofolate reductase [1]) of 0.034 µM, an IC50 [2] of 0.02 µM and an IC50 (Dihydrofolate reductase [3]) of 4.08 µM. The IC50 (Dihydrofolate reductase [4]) was 1.11 µM.

`CC1(C)N=C(N)N=C(N)N1c1ccc(OCc2ccc(Br)cc2)cc1` [1-(4-(4-Bromobenzyloxy)phenyl)-6,6-dimethyl-1,6-dihydro-1,3,5-triazine-2,4-diamine hydrochloride (B2-05)] was tested, and the IC50 (Dihydrofolate reductase [1]) was 0.033 µM, the IC50 [2] was 0.033 µM and the IC50 (Dihydrofolate reductase [3]) was 7.32 µM. For the same compound, the IC50 (Dihydrofolate reductase [4]) was 0.829 µM.

`COc1ccc(COc2ccc(N3C(N)=NC(N)=NC3(C)C)cc2)cc1` [1-(4-(4-Methoxybenzyloxy)phenyl)-6,6-dimethyl-1,6-dihydro-1,3,5-triazine-2,4-diamine hydrochloride (B2-06)] was tested, and the IC50 (Dihydrofolate reductase [1]) was 0.048 µM, the IC50 [2] was 0.019 µM and the IC50 (Dihydrofolate reductase [3]) was 3.38 µM. For the same compound, the IC50 (Dihydrofolate reductase [4]) was 1.69 µM.

Compound `CC1(C)N=C(N)N=C(N)N1c1ccc(OCc2ccc(-c3ccccc3)cc2)cc1` [1-(4-(Biphenyl-4-ylmethoxy)phenyl)-6,6-dimethyl-1,6-dihydro-1,3,5-triazine-2,4-diamine hydrochloride (B2-07)] has an IC50 (Dihydrofolate reductase [1]) of 0.026 µM, an IC50 [2] of 0.012 µM and an IC50 (Dihydrofolate reductase [3]) of 10.2 µM. For the same compound, the IC50 (Dihydrofolate reductase [4]) was 0.403 µM.

Compound `CC1(C)N=C(N)N=C(N)N1c1ccc(OCCN2C(=O)c3ccccc3C2=O)cc1` [2-(2-(4-(4,6-Diamino-2,2-dimethyl-1,3,5-triazin-1(2H)-yl)phenoxy)ethyl)isoindoline-1,3-dione hydrochloride (A2-01)] has an IC50 (Dihydrofolate reductase [1]) of 1.16 µM, an IC50 [2] of 0.424 µM and an IC50 (Dihydrofolate reductase [3]) of 44.6 µM. For the same compound, the IC50 (Dihydrofolate reductase [4]) was 15.4 µM.

Work on `CC1(C)N=C(N)N=C(N)N1c1ccc(OCC(O)CN2C(=O)c3ccccc3C2=O)cc1` (stereo not given) [2-(3-(4-(4,6-Diamino-2,2-dimethyl-1,3,5-triazin-1(2H)-yl)phenoxy)-2-hydroxypropyl)isoindoline-1,3-dione hydrochloride (A2-04)] yielded an IC50 (Dihydrofolate reductase [1]) of 1.94 µM, an IC50 [2] of 0.523 µM and an IC50 (Dihydrofolate reductase [3]) of 154 µM. The IC50 (Dihydrofolate reductase [4]) was 34.6 µM.

`CC1(C)N=C(N)N=C(N)N1c1ccc(OCCCN2C(=O)c3ccccc3C2=O)cc1` [2-(3-(4-(4,6-Diamino-2,2-dimethyl-1,3,5-triazin-1(2H)-yl)phenoxy)propyl)isoindoline-1,3-dione hydrochloride (A2-02)] showed an IC50 (Dihydrofolate reductase [1]) of 0.556 µM, an IC50 [2] of 0.169 µM and an IC50 (Dihydrofolate reductase [3]) of 35.2 µM. For the same compound, the IC50 (Dihydrofolate reductase [4]) was 6.49 µM.

Compound `CC1(C)N=C(N)N=C(N)N1c1ccc(OCCCCN2C(=O)c3ccccc3C2=O)cc1` [2-(4-(4-(4,6-Diamino-2,2-dimethyl-1,3,5-triazin-1(2H)-yl)phenoxy)butyl)isoindoline-1,3-dione (A2-03)] has an IC50 (Dihydrofolate reductase [1]) of 0.033 µM, an IC50 [2] of 0.079 µM and an IC50 (Dihydrofolate reductase [3]) of 8.9 µM. The IC50 (Dihydrofolate reductase [4]) was 2.61 µM.

In the case of `N=C(N)NC(=N)Nc1ccc(OCc2ccccc2)cc1` [N-[4-(Benzyloxy)phenyl]imidodicarbonimidic diamide hydrochloride (B1-01)], the IC50 (Dihydrofolate reductase [1]) is reported as 132 µM, the IC50 [2] is reported as 132 µM and the IC50 (Dihydrofolate reductase [3]) is reported as 132 µM. For the same compound, the IC50 (Dihydrofolate reductase [4]) was 132 µM.

Work on `NC(N)=N/C(N)=N/c1ccc(OCc2ccc(-c3ccccc3)cc2)cc1` [N-[4-(Biphenyl-4-ylmethoxy)phenyl]imidodicarbonimidic diamide hydrochloride (B1-07)] yielded an IC50 (Dihydrofolate reductase [1]) of 67 µM, an IC50 [2] of 111 µM and an IC50 (Dihydrofolate reductase [3]) of 104 µM. For the same compound, the IC50 (Dihydrofolate reductase [4]) was 104 µM.

For `N=C(N)NC(=N)Nc1ccc(OCCN2C(=O)c3ccccc3C2=O)cc1` [N-{4-[2-(1,3-Dioxo-1,3-dihydro-2H-isoindol-2-yl)ethoxy]phenyl}imidodicarbonimidic diamide hydrochloride (A1-01)], the IC50 (Dihydrofolate reductase [1]) was 67.7 µM, the IC50 [2] was 40.3 µM and the IC50 (Dihydrofolate reductase [3]) was 51.4 µM. It also gave an IC50 (Dihydrofolate reductase [4]) of 51.4 µM.

With `N=C(N)NC(=N)Nc1ccc(OCCCN2C(=O)c3ccccc3C2=O)cc1` [N-{4-[3-(1,3-Dioxo-1,3-dihydro-2H-isoindol-2-yl)propoxy]phenyl}imidodicarbonimidic diamide hydrochloride (A1-02)] the IC50 (Dihydrofolate reductase [1]) was 106 µM, the IC50 [2] was 135 µM and the IC50 (Dihydrofolate reductase [3]) was 106 µM. The IC50 (Dihydrofolate reductase [4]) was 106 µM.

`NC(N)=N/C(N)=N/c1ccc(OCc2ccc(Cl)cc2Cl)cc1` [N-{4-[(2,4-Dichlorobenzyl)oxy]phenyl}imidodicarbonimidic diamide hydrochloride (B1-04)] showed an IC50 (Dihydrofolate reductase [1]) of 27.9 µM, an IC50 [2] of 111 µM and an IC50 (Dihydrofolate reductase [3]) of 111 µM. It also gave an IC50 (Dihydrofolate reductase [4]) of 123 µM.

In the case of `N=C(N)NC(=N)Nc1ccc(OCc2ccccc2Cl)cc1` [N-{4-[(2-Chlorobenzyl)oxy]phenyl}imidodicarbonimidic diamide hydrochloride (B1-03)], the IC50 (Dihydrofolate reductase [1]) is reported as 20.8 µM, the IC50 [2] is reported as 9.95 µM and the IC50 (Dihydrofolate reductase [3]) is reported as 152 µM. The IC50 (Dihydrofolate reductase [4]) was 293 µM.

`NC(N)=N/C(N)=N/c1ccc(OCc2cccc(Cl)c2)cc1` [N-{4-[(3-Chlorobenzyl)oxy]phenyl}imidodicarbonimidic diamide hydrochloride (B1-02)] gave an IC50 (Dihydrofolate reductase [1]) of 68.7 µM, an IC50 [2] of 58.5 µM and an IC50 (Dihydrofolate reductase [3]) of 63.8 µM. The IC50 (Dihydrofolate reductase [4]) was 104 µM.

`COc1cccc(COc2ccc(NC(=N)NC(=N)N)cc2)c1` [N-{4-[(3-Methoxybenzyl)oxy]phenyl}imidodicarbonimidic diamide hydrochloride (B1-06)] was tested, and the IC50 (Dihydrofolate reductase [1]) was 14.7 µM, the IC50 [2] was 8.4 µM and the IC50 (Dihydrofolate reductase [3]) was 15.5 µM. It also gave an IC50 (Dihydrofolate reductase [4]) of 15.5 µM.

`N=C(N)NC(=N)Nc1ccc(OCc2ccc(Br)cc2)cc1` [N-{4-[(4-Bromobenzyl)oxy]phenyl}imidodicarbonimidic diamide hydrochloride (B1-05)] showed an IC50 (Dihydrofolate reductase [1]) of 74.9 µM, an IC50 [2] of 21.4 µM and an IC50 (Dihydrofolate reductase [3]) of 127 µM. It also gave an IC50 (Dihydrofolate reductase [4]) of 164 µM.
